From patent US20240082406A1, “BENZOHETEROCYCLE SUBSTITUTED TETRAHYDROISOQUINOLINE COMPOUND” (SHANGHAI JEMINCARE PHARMACEUTICAL CO., LTD, priority 2020, published 2024)
Where a name gives a salt, the structure may show the parent alone.

Legend:
[1] = biological target: T1, NHE3 (UniProt P48764); assay: Cell-based NHE3 activity under transient conditions (BCECF-AM intracellular pH, FLIPR); design: species or system Rat or Human; conditions: opossum kidney cells expressing NHE3, read-out: Cell-based NHE3 inhibition IC50 (uM) under transient conditions
T1 sequence (P48764 1-834): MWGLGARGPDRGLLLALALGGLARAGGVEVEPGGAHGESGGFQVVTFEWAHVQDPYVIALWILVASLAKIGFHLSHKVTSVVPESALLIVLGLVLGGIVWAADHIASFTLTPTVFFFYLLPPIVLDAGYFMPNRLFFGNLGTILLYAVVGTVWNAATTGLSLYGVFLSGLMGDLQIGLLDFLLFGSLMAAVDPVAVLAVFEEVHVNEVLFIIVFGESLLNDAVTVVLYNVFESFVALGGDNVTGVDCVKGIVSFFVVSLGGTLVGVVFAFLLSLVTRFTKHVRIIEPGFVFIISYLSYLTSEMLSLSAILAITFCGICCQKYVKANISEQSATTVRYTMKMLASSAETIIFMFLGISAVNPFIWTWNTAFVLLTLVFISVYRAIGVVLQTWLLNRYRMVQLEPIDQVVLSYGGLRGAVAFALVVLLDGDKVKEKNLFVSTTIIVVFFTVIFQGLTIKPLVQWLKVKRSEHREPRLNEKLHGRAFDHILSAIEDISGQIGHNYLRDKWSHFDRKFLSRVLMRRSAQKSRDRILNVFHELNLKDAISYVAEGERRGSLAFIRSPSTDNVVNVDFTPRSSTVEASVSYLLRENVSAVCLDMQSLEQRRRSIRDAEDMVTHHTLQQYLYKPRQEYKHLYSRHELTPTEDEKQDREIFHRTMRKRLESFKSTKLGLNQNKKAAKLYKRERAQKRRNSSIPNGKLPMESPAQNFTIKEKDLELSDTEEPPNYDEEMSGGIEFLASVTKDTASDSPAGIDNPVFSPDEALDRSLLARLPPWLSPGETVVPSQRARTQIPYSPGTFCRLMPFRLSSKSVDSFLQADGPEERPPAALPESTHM
From the text: (§1) Opossum kidney (OK) cells were obtained from ATCC and cultured and expanded according to its instructions. OK monoclonal stable cell lines expressing the Rat NHE3 (Gene Bank registration number: M85300) protein and OK monoclonal stable cell lines expressing the Human NHE3 (Gene Bank registration number: NM_004174.1) protein were constructed by lentivirus infection.
The general procedure of the cell-based NHE3 activity experiments under transient conditions (transient inhibition) was based on an adaptation method of the pH-sensitive dye method originally reported by Tisen (Proc. Natl. Acad. Sci. USA) (1984) 81(23):7436-7440) to measure rat NHE3-mediated Na+-dependent reverse H+ transport, and was optimized according to the instructions “Measuring Intracellular pH With the FLIPR and FLIPR 384 Fluorometric Imaging Plate Reader Systems” published by Molecular Devices. The specific method was: Rat NHE3 OK monoclonal cells or Human NHE3 OK monoclonal cells were inoculated into 384-well plates and grew overnight. The medium was aspirated from the wells and the cells were washed twice with FLIPR buffer (Hank's BSS 1×, 20 mM HEPES, 1% BSA) followed by incubation with FLIPR buffer (Hank's BSS 1×, 20 mM HEPES, 1% BSA) containing […] BCECF-AM (Invitrogen) for 45 min at room temperature. Subsequently, […] of 200 mM NH4Cl-HEPES buffer (Hank's BSS 1×, 20 mM HEPES, 200 mM NH4Cl) was added and the cells were incubated for 15-20 minutes at room temperature. Cells were washed twice with 20 mM NH4Cl-HEPES buffer (Hank's BSS 1×, 20 mM HEPES, 20 mM NH4Cl). NHE3-mediated pH sensitization in cells was normalized by addition of containing 0.4 mM amiloride (EIPA) and […] test compound or Na-HEPES buffer (100 mM NaCl, 50 mM HEPES, 10 mM glucose, 5 mM KCl, 2 mM CaCl2), 1 mM MgCl2, pH 7.4) and monitoring of BCECF-AM fluorescence at λem 535 nm excitated by λex 440 nm and λex 490 nm respectively. Ratio=fluorescence value (λex 490 nm)/fluorescence value (λex 440 nm) was set, the average value of the Ratio difference between the end time and the start time between the duplicate wells was calculated, the average value and the concentration value of the compound were drawn, and Graphpad Prism software was used to estimate IC50 value.

[2] = biological target: T1, NHE3; assay: Cell-based NHE3 activity under persistent conditions (60 min pre-incubation, compound removed); design: species or system Rat or Human; conditions: opossum kidney cells expressing NHE3, read-out: Cell-based NHE3 inhibition IC50 (uM) under persistent conditions
From the text: as §1
The general procedure of the cell-based NHE3 activity assay under persistent conditions (persistent inhibition) was: Rat NHE3 OK monoclonal cells or Human NHE3 OK monoclonal cells were inoculated into 384-well plates and grew overnight. The medium was aspirated from the wells and the cells were washed twice with FLIPR buffer (Hank's BSS 1×, 20 mM HEPES, 1% BSA) followed by the addition of Na-HEPES buffer containing […] test compound (100 mM NaCl, 50 mM HEPES, 10 mM glucose, 5 mM KCl, 2 mM CaCl2, 1 mM MgCl2, pH 7.4) and incubated for 60 minutes at room temperature. The compounds were aspirated from the wells and incubated with FLIPR buffer (Hank's BSS 1×, 20 mM HEPES, 1% BSA) containing […] BCECF-AM (Invitrogen) for 45 minutes at room temperature. Subsequently, […] of 200 mM NH4Cl-HEPES buffer (Hank's BSS 1×, 20 mM HEPES, 200 mM NH4Cl) was added and incubated for 15-20 minutes at room temperature. The cells were washed twice with 20 mM NH4Cl-HEPES buffer (Hank's BSS 1×, 20 mM HEPES, 20 mM […]). […] Ratio=fluorescence value (λex 490 nm)/fluorescence value (λex 440 nm) was set, the average value of the Ratio difference between the end time and the start time between the duplicate wells was calculated, the average value and the concentration value of the compound were drawn, and the dose-response-inhibition (four parameters) equation was used to estimate EC50 value by GraphpadPrism.

Compound | IC50 ([1]; embodiment compounds) | IC50 [2] | IC50 ([1]; intermediates)
CN1Cc2c(Cl)cc(Cl)cc2C(c2ccc3c(c2)C(=O)N(CCOCCOCCOCCNC(=O)[C@@H](O)[C@@H](O)C(=O)NCCOCCOCCOCCN2Cc4ccc(C5CN(C)Cc6c(Cl)cc(Cl)cc65)cc4C2=O)C3)C1 (stereo partly drawn) [Embodiment J3] | 0.26 µM | 0.08 µM | –
CN1Cc2c(Cl)cc(Cl)cc2C(c2ccc3c(c2)C(=O)N(CCOCCOCCOCCNC(=O)[C@H](O)[C@@H](O)C(=O)NCCOCCOCCOCCN2Cc4ccc(C5CN(C)Cc6c(Cl)cc(Cl)cc65)cc4C2=O)C3)C1 (stereo partly drawn) [Embodiment J2] | 0.32 µM | 0.05 µM | –
CN1Cc2c(Cl)cc(Cl)cc2C(c2ccc3c(c2)S(=O)(=O)NC3)C1 (stereo not drawn) [Intermediate A1-13] | – | – | 0.6 µM
CN1Cc2c(Cl)cc(Cl)cc2C(c2ccc3c(c2)C(=O)N(CCOCCOCCNC(=O)NCCCCNC(=O)NCCOCCOCCN2CCc4ccc(C5CN(C)Cc6c(Cl)cc(Cl)cc65)cc4C2=O)CC3)C1 (stereo not drawn) [Embodiment B3] | 0.77 µM | 0.41 µM | –
CN1Cc2c(Cl)cc(Cl)cc2C(c2ccc3c(c2)C(=O)N(CCOCCOCCOCCNC(=O)COCC(=O)NCCOCCOCCOCCN2Cc4ccc(C5CN(C)Cc6c(Cl)cc(Cl)cc65)cc4C2=O)C3)C1 (stereo not drawn) [Embodiment J1] | 0.43 µM | 0.03 µM | –
CN1Cc2c(Cl)cc(Cl)cc2C(c2ccc3c(c2)S(=O)(=O)NCC3)C1 (stereo not drawn) [Intermediate C1-11] | – | – | 1.24 µM
CN1Cc2c(Cl)cc(Cl)cc2C(c2ccc3c(c2)C(=O)N(CCOCCOCCNC(=O)CN(CCN(CC(=O)O)CC(=O)NCCOCCOCCN2Cc4ccc(C5CN(C)Cc6c(Cl)cc(Cl)cc65)cc4C2=O)CC(=O)O)C3)C1 (stereo not drawn) [Embodiment F1] | 0.91 µM | 0.64 µM | –
CN1Cc2c(Cl)cc(Cl)cc2C(c2cccc3c2CNC3=O)C1 (stereo not drawn) [Intermediate B2-6] | – | – | 0.17 µM
CN1Cc2c(Cl)cc(Cl)cc2C(c2ccc3cnn(CCOCCOCCOCCNC(=O)NCCCCNC(=O)NCCOCCOCCOCCn4ncc5ccc(C6CN(C)Cc7c(Cl)cc(Cl)cc76)cc54)c3c2)C1 (stereo not drawn) [Embodiment D2-P2 hydrochloride salt] | 0.27 µM | 0.12 µM | –
CN1Cc2c(Cl)cc(Cl)cc2C(c2ccc3cc[nH]c(=O)c3c2)C1 (stereo not drawn) [Intermediate B5-6] | – | – | 1.69 µM
CN1Cc2c(Cl)cc(Cl)cc2C(c2ccc3c(c2)CNC3=O)C1 (stereo not drawn) [Intermediate B4-6] | – | – | 0.79 µM
CN1Cc2c(Cl)cc(Cl)cc2C(c2ccc3c(c2)S(=O)(=O)N(CCOCCOCCNC(=O)NCCCCNC(=O)NCCOCCOCCN2C=Cc4ccc(C5CN(C)Cc6c(Cl)cc(Cl)cc65)cc4S2(=O)=O)C=C3)C1 (stereo not drawn) [Embodiment E1] | 0.06 µM | 0.05 µM | –
CN1Cc2c(Cl)cc(Cl)cc2C(c2ccc3cnn(CCOCCOCCNC(=O)NCCCCNC(=O)NCCOCCOCCn4ncc5ccc(C6CN(C)Cc7c(Cl)cc(Cl)cc76)cc54)c3c2)C1 (stereo not drawn) [Embodiment D1-P2] | 2.33 µM | 3.61 µM | –
CN1Cc2c(Cl)cc(Cl)cc2C(c2ccc3c(c2)S(=O)(=O)NC=C3)C1 (stereo not drawn) [Intermediate E1-9] | – | – | 3.17 µM
CN1Cc2c(Cl)cc(Cl)cc2C(c2ccc3c(c2)C(=O)N(CCOCCOCCNC(=O)NC2CCC(NC(=O)NCCOCCOCCN4Cc5ccc(C6CN(C)Cc7c(Cl)cc(Cl)cc76)cc5C4=O)CC2)C3)C1 (stereo not drawn) [Embodiment H1] | 0.91 µM | 0.04 µM | –
CN1Cc2c(Cl)cc(Cl)cc2C(c2ccc3c(c2)S(=O)(=O)N(CCOCCOCCNC(=O)NCCCCNC(=O)NCCOCCOCCN2Cc4ccc(C5CN(C)Cc6c(Cl)cc(Cl)cc65)cc4S2(=O)=O)C3)C1 (stereo not drawn) [Embodiment A1] | 0.43 µM | 0.5 µM | –
CN1Cc2c(Cl)cc(Cl)cc2C(c2ccc3c(c2)C(=O)N(CCOCCOCCNC(=O)O[C@@H]2COC4C2OC[C@H]4OC(=O)NCCOCCOCCN2Cc4ccc(C5CN(C)Cc6c(Cl)cc(Cl)cc65)cc4C2=O)C3)C1 (stereo partly drawn) [Embodiment G1] | 0.93 µM | 0.1 µM | –
CN1Cc2c(Cl)cc(Cl)cc2C(c2ccc3c(c2)C(=O)N(CCOCCOCCOCCNC(=O)CCC(N)(CCC(=O)NCCOCCOCCOCCN2Cc4ccc(C5CN(C)Cc6c(Cl)cc(Cl)cc65)cc4C2=O)CCC(=O)NCCOCCOCCOCCN2Cc4ccc(C5CN(C)Cc6c(Cl)cc(Cl)cc65)cc4C2=O)C3)C1 (stereo not drawn) [Embodiment I3] | 0.19 µM | 0.13 µM | –
CN1Cc2c(Cl)cc(Cl)cc2C(c2ccc3c(c2)C(=O)N(CCOCCOCCNC(=O)NCCCCNC(=O)NCCOCCOCCN2Cc4ccc(C5CN(C)Cc6c(Cl)cc(Cl)cc65)cc4C2=O)C3)C1 (stereo not drawn) [Embodiment B1] | 0.52 µM | 0.02 µM | –
CN1Cc2c(Cl)cc(Cl)cc2C(c2cccc3c2CNS3(=O)=O)C1 (stereo not drawn) [Intermediate A2-13] | – | – | 1.63 µM
CN1Cc2c(Cl)cc(Cl)cc2C(c2ccc3c(c2)CN(CCOCCOCCNC(=O)NCCCCNC(=O)NCCOCCOCCN2Cc4cc(C5CN(C)Cc6c(Cl)cc(Cl)cc65)ccc4C2=O)C3=O)C1 (stereo not drawn) [Embodiment B4] | 0.93 µM | 0.45 µM | –
CN1Cc2c(Cl)cc(Cl)cc2C(c2cccc3c2CN(CCOCCOCCNC(=O)NCCCCNC(=O)NCCOCCOCCN2Cc4c(cccc4C4CN(C)Cc5c(Cl)cc(Cl)cc54)C2=O)C3=O)C1 (stereo not drawn) [Embodiment B2] | 2.05 µM | – | –
CN1Cc2c(Cl)cc(Cl)cc2C(c2ccc3cn[nH]c3c2)C1 (stereo not drawn) [Intermediate D1-7] | – | – | 1.44 µM
CN1Cc2c(Cl)cc(Cl)cc2C(c2cccc3c2CN(CCOCCOCCNC(=O)NCCCCNC(=O)NCCOCCOCCN2Cc4c(C5CN(C)Cc6c(Cl)cc(Cl)cc65)cccc4S2(=O)=O)S3(=O)=O)C1 (stereo not drawn) [Embodiment A2] | 3.14 µM | – | –
CN1Cc2c(Cl)cc(Cl)cc2C(c2ccc3c(c2)C(=O)NC3)C1 (stereo not drawn) [Intermediate B1-6] | – | – | 0.53 µM
